Test results as given in paper doi:10.1101/2025.10.20.683482v1 (biorxiv, 2025).

Assays:
[1] = tested on: 67nR; test: cells; settings: 72 h, read-out: 67nR
[2] = tested on: 4T1; test: cells; settings: Mus musculus, 4T1, 72 h, read-out: 4T1
[3] = tested on: MDA-MB 231; test: cells; settings: Homo sapiens, MDA-MB-231, 72 h, read-out: MDA-MB 231
[4] = tested on: BxPC3; test: cells; settings: Homo sapiens, BXPC-3, 72 h, read-out: BxPC3
[5] = tested on: MIA PaCa; test: cells; settings: Homo sapiens, MIA PaCa-2, 72 h, read-out: MIA PaCa
[6] = target: Human recombinant Methionine Aminopeptidase 2 (MetAp2) (Homo sapiens, UniProt P50579); test: fluorometric H-Met-AMC hydrolysis; format: biochemical
Chain of Human recombinant Methionine Aminopeptidase 2 (MetAp2) (P50579 2-478): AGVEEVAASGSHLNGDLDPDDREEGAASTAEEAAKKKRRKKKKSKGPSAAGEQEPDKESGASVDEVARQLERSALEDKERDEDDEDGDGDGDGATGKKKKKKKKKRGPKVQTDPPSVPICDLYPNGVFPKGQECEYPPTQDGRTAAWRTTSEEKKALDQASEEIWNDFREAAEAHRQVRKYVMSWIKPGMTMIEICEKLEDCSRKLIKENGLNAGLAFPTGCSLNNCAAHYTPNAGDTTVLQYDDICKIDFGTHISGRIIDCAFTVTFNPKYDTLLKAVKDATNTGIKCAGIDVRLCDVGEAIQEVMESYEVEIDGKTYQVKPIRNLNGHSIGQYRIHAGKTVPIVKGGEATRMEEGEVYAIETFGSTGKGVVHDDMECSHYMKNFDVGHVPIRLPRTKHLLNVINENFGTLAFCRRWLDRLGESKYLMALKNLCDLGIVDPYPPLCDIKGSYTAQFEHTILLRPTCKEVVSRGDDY

| Structure (SMILES) | IC50 [1] [µM] | IC50 [2] [µM] | IC50 [3] [µM] | IC50 [4] [µM] | IC50 [5] [µM] | IC50 [6] [µM] |
| --- | --- | --- | --- | --- | --- | --- |
| O=[N+]([O-])c1ccc(O)c2ncccc12 [compound 1, 5-nitroquinolin-8-ol] | 16.8 ± 2.74 | 4.67 ± 1.13 | 20.4 ± 1.22 | 13.9 ± 1.77 | 11.5 ± 2.06 |  |
| CC(C)(C)[Si](C)(C)Oc1ccc([N+](=O)[O-])c2cccnc12 [compound 2] | 23.3 ± 1.5 | 4.92 ± 1.63 | 19.2 ± 1.52 | 15.2 ± 2.01 | 10.4 ± 2.26 | 4.3 |
| CC(C)[Si](Oc1ccc([N+](=O)[O-])c2cccnc12)(C(C)C)C(C)C [compound 3] | 14.4 ± 2.97 | 2.76 ± 0.21 | 17.3 ± 1.07 | 16.7 ± 1.73 | 9.71 ± 2.96 | 2.86 |
| CC(C)(C)[Si](Oc1ccc([N+](=O)[O-])c2cccnc12)(c1ccccc1)c1ccccc1 [compound 4] | 15.6 ± 2.21 | 4.6 ± 2.41 | 15.9 ± 1.47 | 12.8 ± 1.09 | 10.4 ± 1.56 | 3.42 |
| CS(=O)(=O)Oc1ccc([N+](=O)[O-])c2cccnc12 [compound 5] | 25.2 ± 1.96 | 4.22 ± 0.32 | 13.1 ± 1.96 | 25.6 ± 3.35 | 13.8 ± 0.85 |  |
| O=[N+]([O-])c1ccc(OS(=O)(=O)C(F)(F)F)c2ncccc12 [compound 6] | 10.3 ± 1.45 | 4.13 ± 1.17 | 13.8 ± 2.98 | 11.7 ± 1.64 | 9.63 ± 2.35 | > 100 |
| C[Si](C)(C)CCOCOc1ccc([N+](=O)[O-])c2cccnc12 [compound 7] |  | 2.43 ± 1.05 | 34.7 ± 2.17 | 18.1 ± 2.86 | 28.2 ± 3.35 | 21.1 |
| O=[N+]([O-])c1ccc(OCOCc2ccccc2)c2ncccc12 [compound 9] |  | 25.4 ± 3.1 | > 100 | 44.1 ± 2.09 | 60.2 ± 1.52 | 92.1 |
